# According to patent US20240009321A1, “IMMUNOGENIC NANOVESICLES FOR CANCER IMMUNOTHERAPY” (Arizona Board of Regents on Behalf of the University of …, priority 2020, published 2024):
# Key:
# [1] = Maximum tolerated dose (MTD) and systemic toxicity in healthy mice; format: in vivo, BALB/c mice; conditions: for Animal Death / Weight Loss: n=3, 14 days
# Procedure: Changes in body weight and survival of mice were followed every 1-2 days for two weeks. […] On day 14 post drug injection, blood was withdrawn by cardiac puncture and major organs (e.g., heart, liver, and kidneys) were collected. Blood was collected in lithium heparin tubes (BD Microtainer™) followed by centrifuging at 2,000×g for 10 minutes in a refrigerated centrifuge. The supernatant (serum) was sent to University of Arizona University Animal Care Pathology Services Core for a series of serum chemistry analysis. The whole blood in dipotassium EDTA tube (BD Microtainer™) were used for leukocytes, erythrocytes, and thrombocytes analysis. Mice organs from MTD dose and vehicle control groups were placed in a 4% paraformaldehyde solution for 24 h and then sent to Tissue Acquisition and Cellular/Molecular Analysis Shared Resource (TACMASR) at University of Arizona Cancer Center for histopathological analysis.
# [2] = Pharmacokinetics in orthotopic CT26-Luc tumor-bearing mice; conditions: for AUC(0-inf) / AUC(0-t) / MRT / half-life: BALB/c, mouse, plasma, iv; for AUMC / CL / V / Vss: single IV, nanovesicles 6.7/20 mg DOX-IND/CPT/kg
# Procedure: The various pharmacokinetics parameters were assessed by one-compartmental model using PKSolver software.
# CT26 tumor = assay: Therapeutic efficacy in SC CT26 tumor bearing mice; format: in vivo, BALB/c mice; conditions: single IV on day 9 (˜50 mm^3); free CPT 5 mg/kg, Camptothesomes and Onivyde 20 mg CPT or irinotecan/kg
# Procedure: 1×10^5 CT26 cells in 100 μL of serum free medium were SC injected in the right flank of the BALB/c mice (n=5 or 6). […] To determine the effect on survival rate in each group (n=6). Kaplan-Meier plots were used to express animal survival rate. For the efficacy study in FIG. 8D-8H, mice were euthanized on day 21; tumors were collected and soaked in 4% paraformaldehyde overnight prior to the immune phenotypic [CD8, Granzyme B, Perforin, Cleaved caspase-3 (CC-3), and IFN-γ] analysis using IHC staining by University of Arizona TACMASR.
# [3] = Blood kinetics of CPT in SC CT26 tumor bearing mice
# Procedure: Following a single IV injection via tail vein of free CPT (5 mg CPT/kg, MTD) and different Camptothesomes (20 mg CPT/kg) to SC CT26 tumor bearing mice (n=3, ˜300 mm^3), blood was withdrawn at 0.083, 0.333, 1, 2.5, 8, 12 and 24 h and plasma (via plasma tube, BD Microtainer™) was collected and digested in methanol (90 μL methanol/10 μL serum) for HPLC analysis to measure the released CPT and SM-derived CPT conjugates. 24 h after drug IV administration, tumor tissues and major organs (heart, liver, spleen, lung, and kidneys) were collected, weighed, and then homogenized in acidified methanol (0.075 M HCl, 900 μL/100 mg tissues) followed by drug content determination using an established HPLC method. […] Mice were sacrificed at 2.5 h and 72 h post drug administration, the drug content in the collected tumor tissues and organs were processed, and analyzed as described above.
# MC38 tumor = assay: Therapeutic efficacy in SC MC38 tumor bearing mice; format: in vivo, C57BL/6 mice; conditions: ˜300 mm^3, single IV at eq. 20 mg CPT/kg and 6.7 mg DOX-IND/kg
# Procedure: In FIG. 8I-8J, 2×10^5 cells/mouse in 100 μL of serum free medium were SC injected to C57BL/6 (n=6). […] Mice survival rate was closely monitored every day.
# Mouse weight was monitored every 3 days, and mice survival was monitored every day.
# In FIG. 16E-161, 4×10^5 cells/mouse in 100 μL of serum free medium were SC injected to C57BU6 (n=6). Mice were IV injected once with various treatments at equivalent (eq.) 20 mg CPT/kg and 6.7 DOX-IND mg/kg when tumors grew to ˜300 mm^3. α-CD8 (BioXCell, clone 53-6.7) was IP injected at 200 μg/mouse/3 days from day 17. On day 23, mice were euthanized, and tumor tissues were isolated and equally cut into 3 pieces; one part for IHC staining for CD8, Foxp3, Calreticulin, IFN-γ, Perforin, Granzyme B, CC-3) by University of Arizona TACMASR; another two parts for Western blotting of P-S6K and RT-PCR for IL-6, respectively. Mouse weight was monitored every 3 days, and mice survival was monitored every day.
# In FIG. 16K-16N, 2×10^5 cells/mouse were SC injected to C57BL/6 (n=5). When tumors reached ˜400 mm^3, mice received a single IV injection with various treatments at eq. […] Mouse weight was monitored every 3-4 days, and mice survival was monitored every day.
# [4] = Lago optical imaging of in vivo tumor delivery of Cy5.5-labeled Camptothesome-4; set-up: species or system BALB/c mice; conditions: SC CT26 tumor mice, entire monitored period (24 h)
# Procedure: M ice were imaged at 0 h (prior to drug administration), and 2.5, 8, 12, and 24 h post IV injection (excitation=675 nm; emission=710 nm). At 24 h, tumors, heart, liver, spleen, lung, and kidneys were imaged using Lago optical imager. For tumor penetration investigation, tumors were frozen in an acetone/dry ice mixture prior to immunofluorescence examination. The tumor blood vessels were stained with a primary anti-CD31 (a.k.a. PECAM-1) antibody (Abcam, ab28364, 1:50), followed by an Alexa Fluor 488-conjugated secondary antibody (Abcam, ab150073, 1:400). DAPI was used to localize the cellular nuclei. Tumor tissues were cut into […] slide section by University of Arizona TACMASR and subject to the confocal laser scanning microscopy using Leica SP5-II confocal microscope (Buffalo Grove, IL) at University of Arizona Cancer Center Imaging Core.
# [5] = Blood kinetics of CPT, free CPT 5 mg/kg
# [6] = BALB/c, mouse, plasma, iv, 5 mg/kg
# [7] = single IV, free CPT 5 mg/kg, Camptothesomes 20 mg CPT/kg, SC CT26 tumor mice, n=3
# [8] = Blood kinetics of IND, IND 1.7 mg/kg
compound,measurement,setting,value
"CC[C@@]1(O)C(=O)OCc2c1cc1n(c2=O)Cc2cc3ccccc3nc2-1 [Free CPT, (S)-(+)-camptothecin]",Animal Death,"[1]; Dose 5 mg/kg, single IV",0/3
same,Weight Loss,"[1]; Dose 5 mg/kg, single IV",1.82%
same,Animal Death,"[1]; Dose 7.5 mg/kg, single IV",1/3
same,Animal Death,"[1]; Dose 10 mg/kg, single IV",1/3
same,Animal Death,"[1]; Dose 12.5 mg/kg, single IV",0/3
same,Weight Loss,"[1]; Dose 12.5 mg/kg, single IV",25.35%
same,"systemic toxicity (serum chemistry, blood counts, H&E of organs)","[1]; at MTD, day 14 post IV injection",severe systemic toxicities
same,MTD at 14 days,"[1]; mouse, in vivo, single IV, healthy BALB/c mice, 14 days, no death, not more than 15% weight loss",5 mg/kg
same,AUC(0-inf),[2]; 5 mg/kg,9480 ± 880 ng·h/mL
same,AUC(0-t),[2]; 5 mg/kg,9470 ± 870 ng·h/mL
same,MRT,[2]; 5 mg/kg,51.6 ± 2.4 min
same,half-life,[2]; 5 mg/kg,3.6 ± 0.6 min
same,AUMC,[2]; [5],8.12 ± 0.38 μg/mL*h2
same,CL,[2]; [5],10.62 ± 1.00 μg/(μg/mL)/h
same,V,[2]; [5],0.77 ± 0.23 μg/(μg/mL)
same,Vss,[2]; [5],9.16 ± 1.30 μg/(μg/mL)
same,tumor growth,CT26 tumor,significant tumor reduction
same,half-life,"[3]; BALB/c, mouse, in vivo, iv, 5 mg/kg",4.2 ± 0.6 min
same,AUC(0-inf),[3]; [6],11200 ± 1520 ng·h/mL
same,AUC(0-t),[3]; [6],11000 ± 1550 ng·h/mL
same,MRT,[3]; [6],351 ± 24.6 min
same,elimination from blood / circulation half-life,"[3]; SC CT26 tumor mice, single IV",rapidly eliminated from blood
same,AUMC,[3]; [7],65.42 ± 6.99 μg/mL · h^2
same,CL,[3]; [7],36.06 ± 5.00 µg/µg/mL/h
same,V,[3]; [7],26.44 ± 0.27 µg/µg/mL
same,Vss,[3]; [7],211.68 ± 38.45 µg/µg/mL
"Cn1cc(C[C@@H](N)C(=O)O)c2ccccc21 [Free IND, 1-methyl-D-tryptophan]",AUC(0-inf),[2]; 1.7 mg/kg,5670 ± 540 ng·h/mL
same,AUC(0-t),[2]; 1.7 mg/kg,5660 ± 530 ng·h/mL
same,MRT,[2]; 1.7 mg/kg,24.6 ± 5.4 min
same,half-life,[2]; 1.7 mg/kg,4.8 ± 1.2 min
same,AUMC,[2]; [8],2.38 ± 0.71 μg/mL*h2
same,CL,[2]; [8],12.08 ± 1.17 μg/(μg/mL)/h
same,V,[2]; [8],4.94 ± 0.63 μg/(μg/mL)
same,Vss,[2]; [8],4.95 ± 0.63 μg/(μg/mL)
"COc1cccc2c1C(=O)c1c(O)c3c(c(O)c1C2=O)C[C@@](O)(/C(CO)=N\NC(=O)OCCSSCCOC(=O)C(N)Cc1cn(C)c2ccccc12)C[C@@H]3O[C@H]1C[C@H](N)[C@H](O)[C@H](C)O1 (stereo in doubt) [DOX-IND, 2-((2-((1-methyl-D-tryptophyl)oxy)ethyl)disulfanyl)ethyl (Z)-2-(1-((2S,4S)-4-(((2R,4S, 5S, 6S)-4-amino-5-hydroxy-6-methyltetrahydro-2H-pyran-2-yl)oxy)-2,5,12-trihydroxy-7-methoxy-6,11-dioxo-1,2,3,4,6,11-hexahydrotetracen-2-yl)-2-hydroxyethylidene)hydrazine-1-carboxylate]",tumor growth in large MC38 tumors,MC38 tumor,did not show significant tumor growth inhibition
"1,2-dioleoyl-sn-glycero-3-phosphoethanolamine-N-(cyanine 5.5) [Free DSPE-Cy5.5]",fluorescence signal in tumors,[4],no observable signal in tumors
